In PubChem BioAssay AID1963838 (Molecular Pharmacology Branch, DTP, NCI, 2024):

Test system: 855422-203-R-J1-PDC complex spheroid viability
Test: Anticancer human tumor 855422-203-R-J1-PDC patient-derived bladder carcinoma cell line growth inhibition [POLQ]
Settings: for IC50: curve of first compound; for viability, T/C: stronger effect = lower value
In short: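 Patient-derived tumour cells were co-cultured with HUVEC and mesenchymal stem cells as multicellular spheroids at 37 °C. They were treated with POLQ inhibitors (novobiocin, ART-558, RP6685) alone or combined with other agents. Top concentrations were at or near clinical Cmax (otherwise 10 microM; SN-38 at 1 microM), decreasing in half-log steps.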

[1] = second compound 0.0316 µM, first compound 0.0316 µM
[2] = second compound 0.0316 µM, first compound 0.1 µM
[3] = second compound 0.0316 µM, first compound 0.316 µM
[4] = second compound 0.0316 µM, first compound 1 µM
[5] = second compound 0.0316 µM, first compound 3.16 µM
[6] = second compound 0.0316 µM, first compound 10 µM
[7] = second compound 0.1 µM, first compound 0.0316 µM
[8] = second compound 0.1 µM, first compound 0.1 µM
[9] = second compound 0.1 µM, first compound 0.316 µM
[10] = second compound 0.1 µM, first compound 1 µM
[11] = second compound 0.1 µM, first compound 3.16 µM
[12] = second compound 0.1 µM, first compound 10 µM
[13] = second compound 0.316 µM, first compound 0.0316 µM
[14] = second compound 0.316 µM, first compound 0.1 µM
[15] = second compound 0.316 µM, first compound 0.316 µM
[16] = second compound 0.316 µM, first compound 1 µM
[17] = second compound 0.316 µM, first compound 3.16 µM
[18] = second compound 0.316 µM, first compound 10 µM
[19] = second compound 1 µM, first compound 0.0316 µM
[20] = second compound 1 µM, first compound 0.1 µM
[21] = second compound 1 µM, first compound 0.316 µM
[22] = second compound 1 µM, first compound 1 µM
[23] = second compound 1 µM, first compound 3.16 µM
[24] = second compound 1 µM, first compound 10 µM
[25] = second compound 3.16 µM, first compound 0.0316 µM
[26] = second compound 3.16 µM, first compound 0.1 µM
[27] = second compound 3.16 µM, first compound 0.316 µM
[28] = second compound 3.16 µM, first compound 1 µM
[29] = second compound 3.16 µM, first compound 3.16 µM
[30] = second compound 3.16 µM, first compound 10 µM
[31] = second compound 10 µM, first compound 0.0316 µM
[32] = second compound 10 µM, first compound 0.1 µM
[33] = second compound 10 µM, first compound 0.316 µM
[34] = second compound 10 µM, first compound 1 µM
[35] = second compound 10 µM, first compound 3.16 µM
[36] = second compound 10 µM, first compound 10 µM
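Also: spheroids exposed to compounds for seven days before readout.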

C#Cc1c(F)ccc2cc(O)cc(-c3ncc4c(N5CC6CCC(C5)N6)nc(OCC56CCCN5CC(F)C6)nc4c3F)c12 (stereo not drawn) + COC1C(OC(N)=O)C(O)C(Oc2ccc3c(O)c(NC(=O)c4ccc(O)c(CC=C(C)C)c4)c(=O)oc3c2C)OC1(C)C
IC50 (second compound 0.0316 µM): > 10 µM
IC50 (second compound 0.1 µM): > 10 µM
IC50 (second compound 0.316 µM): > 10 µM
IC50 (second compound 1 µM): > 10 µM
IC50 (second compound 3.16 µM): > 10 µM
IC50 (second compound 10 µM): > 10 µM
viability, T/C [1]: 102%
viability, T/C [2]: 105%
viability, T/C [3]: 96.1%
viability, T/C [4]: 109%
viability, T/C [5]: 123%
viability, T/C [6]: 120%
viability, T/C [7]: 103%
viability, T/C [8]: 114%
viability, T/C [9]: 98.4%
viability, T/C [10]: 108%
viability, T/C [11]: 102%
viability, T/C [12]: 108%
viability, T/C [13]: 108%
viability, T/C [14]: 103%
viability, T/C [15]: 122%
viability, T/C [16]: 115%
viability, T/C [17]: 114%
viability, T/C [18]: 117%
viability, T/C [19]: 103%
viability, T/C [20]: 97.3%
viability, T/C [21]: 117%
viability, T/C [22]: 115%
viability, T/C [23]: 120%
viability, T/C [24]: 111%
viability, T/C [25]: 107%
viability, T/C [26]: 109%
viability, T/C [27]: 123%
viability, T/C [28]: 111%
viability, T/C [29]: 96.5%
viability, T/C [30]: 99.2%
viability, T/C [31]: 102%
viability, T/C [32]: 104%
viability, T/C [33]: 108%
viability, T/C [34]: 117%
viability, T/C [35]: 112%
viability, T/C [36]: 115%

C=CC(=O)N1CCN(c2nc(=O)n(-c3c(C)ccnc3C(C)C)c3nc(-c4c(O)cccc4F)c(F)cc23)C(C)C1 (stereo not drawn) + COC1C(OC(N)=O)C(O)C(Oc2ccc3c(O)c(NC(=O)c4ccc(O)c(CC=C(C)C)c4)c(=O)oc3c2C)OC1(C)C
IC50 (second compound 0.0316 µM): > 10 µM
IC50 (second compound 0.1 µM): > 10 µM
IC50 (second compound 0.316 µM): > 10 µM
IC50 (second compound 1 µM): > 10 µM
IC50 (second compound 3.16 µM): > 10 µM
IC50 (second compound 10 µM): > 10 µM
viability, T/C [1]: 110%
viability, T/C [2]: 106%
viability, T/C [3]: 106%
viability, T/C [4]: 111%
viability, T/C [5]: 123%
viability, T/C [6]: 120%
viability, T/C [7]: 95%
viability, T/C [8]: 111%
viability, T/C [9]: 108%
viability, T/C [10]: 123%
viability, T/C [11]: 123%
viability, T/C [12]: 116%
viability, T/C [13]: 111%
viability, T/C [14]: 123%
viability, T/C [15]: 111%
viability, T/C [16]: 114%
viability, T/C [17]: 128%
viability, T/C [18]: 114%
viability, T/C [19]: 119%
viability, T/C [20]: 120%
viability, T/C [21]: 114%
viability, T/C [22]: 119%
viability, T/C [23]: 121%
viability, T/C [24]: 129%
viability, T/C [25]: 116%
viability, T/C [26]: 108%
viability, T/C [27]: 108%
viability, T/C [28]: 113%
viability, T/C [29]: 121%
viability, T/C [30]: 128%
viability, T/C [31]: 109%
viability, T/C [32]: 111%
viability, T/C [33]: 106%
viability, T/C [34]: 103%
viability, T/C [35]: 122%
viability, T/C [36]: 111%

O=C(Nc1ccc(O)c(NS(=O)(=O)c2ccc(F)cc2)c1)c1ccc(-c2ccccc2)cc1 + COC1C(OC(N)=O)C(O)C(Oc2ccc3c(O)c(NC(=O)c4ccc(O)c(CC=C(C)C)c4)c(=O)oc3c2C)OC1(C)C
IC50 (second compound 0.0316 µM): 8.24 µM
IC50 (second compound 0.1 µM): 8.44 µM
IC50 (second compound 0.316 µM): 8.45 µM
IC50 (second compound 1 µM): 8.14 µM
IC50 (second compound 3.16 µM): 7.83 µM
IC50 (second compound 10 µM): 7.63 µM
viability, T/C [1]: 101%
viability, T/C [2]: 101%
viability, T/C [3]: 119%
viability, T/C [4]: 116%
viability, T/C [5]: 106%
viability, T/C [6]: 38.7%
viability, T/C [7]: 109%
viability, T/C [8]: 105%
viability, T/C [9]: 110%
viability, T/C [10]: 98.2%
viability, T/C [11]: 103%
viability, T/C [12]: 40.8%
viability, T/C [13]: 105%
viability, T/C [14]: 110%
viability, T/C [15]: 113%
viability, T/C [16]: 110%
viability, T/C [17]: 106%
viability, T/C [18]: 40.4%
viability, T/C [19]: 106%
viability, T/C [20]: 111%
viability, T/C [21]: 111%
viability, T/C [22]: 113%
viability, T/C [23]: 98.8%
viability, T/C [24]: 39%
viability, T/C [25]: 109%
viability, T/C [26]: 122%
viability, T/C [27]: 112%
viability, T/C [28]: 111%
viability, T/C [29]: 94.2%
viability, T/C [30]: 37.9%
viability, T/C [31]: 107%
viability, T/C [32]: 104%
viability, T/C [33]: 108%
viability, T/C [34]: 102%
viability, T/C [35]: 101%
viability, T/C [36]: 34.6%

COc1cccc2c1C(=O)c1c(O)c3c(c(O)c1C2=O)CC(O)(C(=O)CO)CC3OC1CC(N)C(O)C(C)O1 (stereo not drawn) + Cc1cccc(N(C)C(=O)C2C(O)CCN2c2nc(C)cc(C(F)(F)F)c2C#N)c1
IC50 (second compound 0.0316 µM): < 0.0316 µM
IC50 (second compound 0.1 µM): < 0.0316 µM
IC50 (second compound 0.316 µM): < 0.0316 µM
IC50 (second compound 1 µM): < 0.0316 µM
IC50 (second compound 3.16 µM): < 0.0316 µM
IC50 (second compound 10 µM): < 0.0316 µM
viability, T/C [1]: 16.1%
viability, T/C [2]: 10.2%
viability, T/C [3]: 2.55%
viability, T/C [4]: 0.3%
viability, T/C [5]: 0.66%
viability, T/C [6]: 2.13%
viability, T/C [7]: 15.8%
viability, T/C [8]: 10.1%
viability, T/C [9]: 2.47%
viability, T/C [10]: 0.26%
viability, T/C [11]: 0.48%
viability, T/C [12]: 2.11%
viability, T/C [13]: 16.4%
viability, T/C [14]: 9.49%
viability, T/C [15]: 3.59%
viability, T/C [16]: 0.33%
viability, T/C [17]: 0.43%
viability, T/C [18]: 1.8%
viability, T/C [19]: 14.4%
viability, T/C [20]: 9.02%
viability, T/C [21]: 2.18%
viability, T/C [22]: 0.24%
viability, T/C [23]: 0.8%
viability, T/C [24]: 1.14%
viability, T/C [25]: 14.1%
viability, T/C [26]: 8.42%
viability, T/C [27]: 2.03%
viability, T/C [28]: 0.25%
viability, T/C [29]: 0.6%
viability, T/C [30]: 2.24%
viability, T/C [31]: 13.5%
viability, T/C [32]: 9.55%
viability, T/C [33]: 1.76%
viability, T/C [34]: 0.25%
viability, T/C [35]: 0.59%
viability, T/C [36]: 1.9%
